Experimental data taken from US9944589B2, “Cycloproplyamine derivatives useful as inhibitors of histone demethylases KDM1A” (Istituto Europeo de Oncologia S.r.L., priority 2012, dated 2018).
Structures can show the parent of a compound that is named as a salt.

Legend:
[1] = tested on: Acute promyelocytic leukemia NB4 cells; test: Cell growth (CellTiter-Fluor cell viability assay); assay type: cell-based; conditions: Homo sapiens, NB-4, 48 h, range classes, read-out: IC50 [μM], cell growth inhibitory assay
From the text: CellTiter-Flor® (Promega) is as a nonlytic, single-reagent-addition fluorescence assay that measures the relative number of living cells in a culture population after experimental manipulation. The CellTiter-Fluor™ Cell Viability Assay measures the conserved and constitutive protease activity within live cells and therefore acts as a marker for cell viability.
Acute promyelocytic leukemia NB4 cells, (obtained from the Deutsche Sammlung von Mikroorganismen and Zellkulturen) in exponential growth, were incubated for 48 h with different concentrations of the inhibitors. After 48 h a volume of CellTiter-Fluor® Reagent equal to one fifth of volume of cell culture medium was added. The content was mixed and incubates for at least 90 min at 37° C. degree to obtain a stable signal. The fluorescence was recorded using an excitation wavelength of 360 nm and an emission at 535 nm. The IC50 was calculated using GraphPad Software.

[2] = tested on: mouse model of leukemia resembling the human acute promyelocytic leukemia; test: In vivo activity, mouse leukemia model, splenomegaly as read out of blast infiltration; conditions: orally, 30 mg/kg, 4 days, leukemic mice
Method: The in vivo activity was conducted on a mouse model as characterized by Minucci et al. (Minucci S. et al. Blood 2002, 100, 2989-2995) The model is characterized by the development of leukemia, resembling the human acute promyelocytic leukemia, which is associated to a blast infiltration of several organs as bone marrow, liver and particularly of the spleen. In the conducted experiment, splenomegaly was studied as read out of blast infiltration and development of leukemia.
For the in vivo analysis, one million of leukemic cells (obtained from 129SvEv mice, Minucci S. et al. Blood 2002, 100, 2989-2995, obtained from Taconic, One Hudson City Centre Hudson, N.Y. (USA)) were injected intravenously into non-irradiated syngenic recipients. Treatment started once blast cells are detected in the recipients' peripheral blood (9 days after injection). The compounds were intravenously or orally administered at doses of 10 and 30 mg/kg for 4 days. […] after blast injection the mice were sacrificed and the spleens recovered. The weights of the spleen of the mice of the vehicle groups as well as of the treated groups were registered and used as evidence of effect on blast infiltration. […]
Compound A-36 administered orally at 30 mg/kg determined a reduction of the spleen weight of around 50% compared to mice treated with the vehicle (40% PEG-400, 60% aqueous solution containing 5% glucose) alone.

Human recombinant MAO B = target: T1, Human recombinant MAO B (Homo sapiens, UniProt P27338); conditions: ratio of IC50 against MAO-B over IC50 for LSD1
T1 sequence (P27338 1-520): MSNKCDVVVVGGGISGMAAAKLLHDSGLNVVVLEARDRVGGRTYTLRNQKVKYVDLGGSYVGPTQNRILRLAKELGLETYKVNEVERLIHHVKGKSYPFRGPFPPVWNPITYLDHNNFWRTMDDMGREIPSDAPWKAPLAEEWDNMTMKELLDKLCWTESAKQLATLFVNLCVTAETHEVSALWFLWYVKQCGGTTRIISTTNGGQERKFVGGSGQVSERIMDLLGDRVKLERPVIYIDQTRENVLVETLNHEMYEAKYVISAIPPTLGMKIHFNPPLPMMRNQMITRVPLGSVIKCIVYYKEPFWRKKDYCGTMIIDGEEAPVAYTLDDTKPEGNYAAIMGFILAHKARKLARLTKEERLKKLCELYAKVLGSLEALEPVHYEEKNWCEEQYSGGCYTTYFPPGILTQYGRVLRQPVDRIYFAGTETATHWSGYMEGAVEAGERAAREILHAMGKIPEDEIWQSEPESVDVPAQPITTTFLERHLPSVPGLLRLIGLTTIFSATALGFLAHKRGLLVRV
Method: The MAO-Glo Assay from Promega (cat. V1402, Promega, Madison, Wis.) was used to measure the effect of inhibitors on MAO-A and MAO-B activity.
After 30 minutes of incubation the reaction was stopped with the Promega detection reagent. The experiments were carried out in duplicate. IC50 was calculated using GraphPad Prism version 4.0 (GraphPad Software, San Diego, Calif.).

[3] = target: T2, human recombinant KDM1A (LSD1)/CoRest (Homo sapiens, UniProt O60341); test: Assay of enzyme inhibition of KDM1A (LSD1), Amplex UltraRed/peroxidase coupled; assay type: biochemical; conditions: 15 min preincubation, 4.5 μM mono-methylated H3-K4 peptide, range classes, read-out: IC50 [μM], KDM1A inhibition assay
T2 construct: made in house; host or cells: E. coli
Procedure, shortened: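 KDM1A/CoRest complex with inhibitor (e.g. 0–100 μM) and Amplex UltraRed/peroxidase preincubated 15 min at RT. Substrate: mono-methylated H3K4 21-mer peptide in 50 mM Tris pH 8, 0.05 mg/ml BSA, aerobic. IC50 from duplicates run twice, background-corrected.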

| Structure (SMILES) | IC50 [1] | reduction of the spleen weight compared to mice treated with the vehicle [2] | IC50 (MAO-B)/IC50 (LSD1) (Human recombinant MAO B) | IC50 [3] |
| --- | --- | --- | --- | --- |
| CC[C@@]1(N)C[C@H]1c1ccc(NC(=O)c2ccc(-c3ccccc3)cc2)cc1 (relative stereo) [Example A-36, N-[4-[(trans)-2-amino-2-ethyl-cyclopropyl]phenyl]-4-phenyl-benzamide hydrochloride] | ≤ 10 µM | around 50% | 16 |  |
| CC[C@]1(N)C[C@@H]1c1ccc(NC(=O)c2ccccc2)cc1.Cl (relative stereo) [Example A-47, N-[4-[trans-2-amino-2-ethyl-cyclopropyl]phenyl]benzamide hydrochloride] |  |  | >100 | < 0.1 µM |
| CC[C@@]1(N)C[C@H]1c1ccc(NC(=O)c2ccc(-c3ccoc3)cc2)cc1 (relative stereo) [Example A-78, N-[4-[trans-2-amino-2-ethyl-cyclopropyl]phenyl]-4-(3-furyl) benzamide hydrochloride] | ≤ 10 µM |  | 60 | < 0.1 µM |
| CC[C@@]1(N)C[C@H]1c1ccc(NC(=O)c2cccc(N3CCOC3=O)c2)cc1 (relative stereo) [Example A-98, N-[4-[trans-2-amino-2-ethyl-cyclopropyl]phenyl]-3-(2-oxooazolidin-3-yl)benzamide 2,2,2-trifluoroacetic acid] | ≤ 10 µM |  | >100 | < 0.1 µM |
| N[C@]1(CCc2ccccc2)C[C@H]1c1ccc(NC(=O)c2ccc(-c3ccccc3)cc2)cc1 (relative stereo) [Example A-113, N-[4-(trans-2-amino-2-phenethyl-cyclopropyl)phenyl]-4-phenyl-benzamide hydrochloride] | ≤ 10 µM |  |  | 0.1 to 1 µM |
| N[C@]1(CCc2ccccc2)C[C@H]1c1ccc(NC(=O)c2ccccc2)cc1 (relative stereo) [Example A-114, N-[4-trans-2-amino-2-phenethyl-cyclopropyl)phenyl] benzamide hydrochloride] | ≤ 10 µM |  | >100 | < 0.1 µM |
| CN1CCC(c2ccc(C(=O)Nc3ccc([C@@H]4C[C@]4(N)CCc4ccccc4)cc3)cc2)CC1 (relative stereo) [Example A-115, N-[4-(trans-2-amino-2-phenethyl-cyclopropyl)phenyl]-4-(1-methyl-4-piperidyl)benzamide dihydrochloride] | ≤ 10 µM |  |  | < 0.1 µM |
| CN1CCN(c2ccc(C(=O)Nc3ccc([C@@H]4C[C@]4(N)CCc4ccccc4)cc3)cc2)CC1 (relative stereo) [Example A-116, N-[4-(trans-2-amino-2-phenethyl-cyclopropyl)phenyl]-4-(4-methylpiperazin-1-yl)benzamide dihydrochloride] | ≤ 10 µM |  | >100 | < 0.1 µM |
| CC[C@@]1(N)C[C@H]1c1ccc(NC(=O)c2ccc(N3CCN(C)CC3)c(NC(=O)OCc3ccccc3)c2)cc1 (relative stereo) [Example A-117, benzyl N-[5-[[4-[trans-2-amino-2-ethyl-cyclopropyl]phenyl]carbamoyl]-2-(4-methylpiperazin-1-yl)phenyl] carbamate 2,2,2-trifluoroacetic acid] | ≤ 10 µM |  |  | 0.1 to 1 µM |
| N[C@]1(CCc2ccccc2)C[C@H]1c1ccc(NC(=O)c2cccc(N3CCOC3=O)c2)cc1 (relative stereo) [Example A-118, N-[4-(trans-2-amino-2-phenethyl-cyclopropyl)phenyl]-3-(2-oxooxazolidin-3-yl)benzamide 2,2,2-trifluoroacetic acid] | ≤ 10 µM |  |  | < 0.1 µM |
| CC[C@@]1(N)C[C@H]1c1ccc(-n2cc(-c3cccc(NC(=O)OCc4ccccc4)c3)nn2)cc1 (relative stereo) [Example A-121, Benzyl N-[3-[1-[4-[trans-2-amino-2-ethyl-cyclopropyl]phenyl]triazol-4-yl]phenyl]carbamate hydrochloride] | 50 to 100 µM |  |  | 0.1 to 1 µM |
| CC[C@@]1(N)C[C@H]1c1cccc(-n2cc(-c3ccccc3)nn2)c1 (relative stereo) [Example A-122, trans-1-ethyl-2-[3-(4-phenyltriazol-1-yl)phenyl]cyclopropan amine hydrochloride] | 10 to 50 µM |  |  | 0.1 to 1 µM |
| N[C@]1(Cc2ccc3ccccc3c2)C[C@H]1c1ccc(-n2cc(-c3ccccc3)nn2)cc1 (relative stereo) [Example A-124, trans-1-(2-naphthylmethyl)-2-[4-(4-phenyltriazol-1-yl)phenyl]cyclopropan amine hydrochloride] | 10 to 50 µM |  |  | 0.1 to 1 µM |
| N[C@]1(CNCc2ccccc2)C[C@H]1c1ccccc1 (relative stereo) [Example B-3, trans-1-(benzylamino)methyl-2-phenyl-cyclopropanamine dihydrochloride] | 50 to 100 µM |  |  | 1 to 5 µM |
| CN1CCN(C(=O)CN[C@]2(Cc3ccc4ccccc4c3)C[C@H]2c2ccccc2)CC1 (relative stereo) [Example C-24, 1-(4-methylpiperazin-1-yl)-2-[[trans-1-(2-naphthylmethyl)-2-phenyl-cyclopropyl]amino]ethanone dihydrochloride] | 10 to 50 µM |  |  | 0.1 to 1 µM |
| N[C@]1(c2ccc([N+](=O)[O-])cc2)C[C@H]1c1ccccc1 (relative stereo) [Example D-3, trans-1-(4-nitrophenyl)-2-phenyl-cyclopropanamine hydrochloride] | 10 to 50 µM |  |  | 0.1 to 1 µM |
| N[C@]1(c2ccccc2)C[C@H]1c1ccc(Cl)cc1 (relative stereo) [Example D-4, trans-2-(4-chlorophenyl)-1-phenyl-cyclopropanamine hydrochloride] | 50 to 100 µM |  |  | 0.1 to 1 µM |
| N[C@]1(c2ccccc2)C[C@H]1c1ccc(Br)cc1 (relative stereo) [Example D-5, trans-2-(4-bromophenyl)-1-phenyl-cyclopropanamine hydrochloride] | 10 to 50 µM |  |  | < 0.1 µM |
| N[C@]1(Cc2ccc3ccccc3c2)C[C@H]1c1ccc(OCc2ccccc2)cc1 (stereo in doubt) [Example A-67, 2-(4-benzyloxyphenyl)-1-(2-naphthylmethyl) cyclopropanamine hydrochloride] | 10 to 50 µM |  |  | 0.1 to 1 µM |
| N[C@]1(Cc2ccc3ccccc3c2)C[C@H]1c1ccc(NC(=O)c2ccccc2)cc1 [Example A-44, N-[4-[tyrans-2-amino-2-(2-naphthylmethyl)cyclopropyl]phenyl] benzamide hydrochloride] | ≤ 10 µM |  |  | < 0.1 µM |
